Like-named read-outs stand apart in the source and are kept apart here.
Experiments:
SARS-CoV-2 3CL^pro [1] = target: T1, SARS-CoV-2 3CL^pro (Severe acute respiratory syndrome coronavirus 2 (2019-nCoV) (SARS-CoV-2), UniProt P0DTD1); assay type: cell-based; details: Western Blot
SARS-CoV-2 3CL^pro [2] = target: T1, SARS-CoV-2 3CL^pro; assay: 3CL^pro inhibitory activity test (fluorescence resonance energy transfer); assay type: biochemical
[3] = HEK293E cells transfected with 3CL^pro plasmid, 24 h treatment, read-out: DC50
[4] = HEK293E cells, 24 h, read-out: DC50 values
[5] = FRET, substrate Dabcyl-KTSAVLQSGFRKME-Edans 20 μM, enzyme 0.5 μM, read-out: IC50

**Q.** For `Cn1cc2cc(/N=c3\[nH]c(=O)n(Cc4cn(CCC(=O)Nc5cccc6c5CN(C5CCC(=O)NC5=O)C6=O)nn4)c(=O)n3Cc3cc(F)c(F)cc3F)c(Cl)cc2n1` (stereo not shown) [Compound 1], which DC50 (SARS-CoV-2 3CL^pro [1]; [3]) is on record?
**A.** 100 to 1000 nM

**Q.** What about the IC50 (SARS-CoV-2 3CL^pro [2]) of the same compound?
**A.** 100 to 1000 nM

**Q.** What does the source list for `Cn1cc2cc(/N=c3\[nH]c(=O)n(Cc4cn(CCCCCC(=O)Nc5cccc6c5CN(C5CCC(=O)NC5=O)C6=O)nn4)c(=O)n3Cc3cc(F)c(F)cc3F)c(Cl)cc2n1` (stereo not shown) [Compound 4, (E)-6-(4-((4-((6-chloro-2-methyl-2H-indazol-5-yl)imino)-2,6-dioxy-3-(2,4,5-Trifluorobenzyl)-1,3,5-triazin-1-yl)methyl)-1H-1,2,3-triazol-1-yl)-N-(2-Preparation of (2,6-Dioxypiperidin-3-yl)-1-oxoisoquinolin-4-yl)hexanamide]?
**A.** DC50 (SARS-CoV-2 3CL^pro [1]; [3]): < 100 nM; DC50 (SARS-CoV-2 3CL^pro [1]; [4]): < 100 nM; IC50 (SARS-CoV-2 3CL^pro [2]; [5]): < 100 nM; IC50 (SARS-CoV-2 3CL^pro [2]; FRET, read-out: IC50 values): < 100 nM

**Q.** Which results are given for `Cn1cc2cc(/N=c3\[nH]c(=O)n(Cc4cn(CCC(=O)Nc5cccc6c5C(=O)N(C5CCC(=O)NC5=O)C6=O)nn4)c(=O)n3Cc3cc(F)c(F)cc3F)c(Cl)cc2n1` (stereo not shown) [Compound 7, (E)-3-(4-((4-((6-chloro-2-methyl-2H-indazol-5-yl)imino)-2,6-dioxy-3-(2,4,5-Trifluorobenzyl)-1,3,5-triazin-1-yl)methyl)-1H-1,2,3-triazol-1-yl)-N-(2-Preparation of (2,6-dioxopiperidin-3-yl)-1,3-dioxoisoindolin-4-yl)propionamide]?
**A.** DC50 (SARS-CoV-2 3CL^pro [1]; [3]): 100 to 1000 nM; IC50 (SARS-CoV-2 3CL^pro [2]): 100 to 1000 nM

**Q.** With `Cn1cc2cc(/N=c3\[nH]c(=O)n(Cc4cn(CCOCC(=O)Nc5cccc6c5CN(C5CCC(=O)NC5=O)C6=O)nn4)c(=O)n3Cc3cc(F)c(F)cc3F)c(Cl)cc2n1` (stereo not shown) [Compound 13, (E)-2-(2-(4-((4-((6-chloro-2-methyl-2H-indazol-5-yl)imino)-2,6-dioxy-3-(2,4,5-Trifluorobenzyl)-1,3,5-triazin-1-yl)methyl)-1H-1,2,3-triazol-1-yl)ethoxyyl)-N-(2-(2,6-dioxopiperidin-3-yl)-1-oxoisoquinolin-4-yl)acetamide] as the compound, how does the DC50 (SARS-CoV-2 3CL^pro [1]; [3]) read?
**A.** < 100 nM

**Q.** What about the DC50 (SARS-CoV-2 3CL^pro [1]; [4]) of the same compound?
**A.** < 100 nM

**Q.** What about the IC50 (SARS-CoV-2 3CL^pro [2]) of the same compound?
**A.** 100 to 1000 nM

**Q.** How did the DC50 (SARS-CoV-2 3CL^pro [1]; [3]) turn out when `Cn1cc2cc(/N=c3\[nH]c(=O)n(Cc4cn(CCOCCOCC(=O)Nc5cccc6c5CN(C5CCC(=O)NC5=O)C6=O)nn4)c(=O)n3Cc3cc(F)c(F)cc3F)c(Cl)cc2n1` (stereo not shown) [Compound 14, (E)-2-(2-(2-(4-((4-((6-chloro-2-methyl-2H-indazol-5-yl)imino)-2,6-Dioxy-3-(2,4,5-trifluorobenzyl)-1,3,5-triazin-1-yl)methyl)-1H-1,2,3-triazol-1-yl)ethoxy)ethoxy)-N-(2-(2,6-dioxopiperidin-3-yl)-1-oxoisoindolin-4-yl)acetamide] was run?
**A.** < 100 nM

**Q.** What about the DC50 (SARS-CoV-2 3CL^pro [1]; [4]) of the same compound?
**A.** < 100 nM

**Q.** With `Cn1cc2cc(/N=c3\[nH]c(=O)n(Cc4cn(CCOCCOCCOCC(=O)Nc5cccc6c5CN(C5CCC(=O)NC5=O)C6=O)nn4)c(=O)n3Cc3cc(F)c(F)cc3F)c(Cl)cc2n1` (stereo not shown) [Compound 15, (E)-2-(2-(2-(2-(4-((4-((6-chloro-2-methyl-2H-indazol-5-yl)imino)-2,6-Dioxy-3-(2,4,5-trifluorobenzyl)-1,3,5-triazin-1-yl)methyl)-1H-1,2,3-triazole-1-yl)ethoxy)ethoxy)ethoxy)-N-(2-(2,6-dioxopiperidin-3-yl)-1-oxoisoindolin-4-yl)ethyl Preparation of amides] as the compound, how does the DC50 (SARS-CoV-2 3CL^pro [1]; [3]) read?
**A.** < 100 nM

**Q.** And the DC50 (SARS-CoV-2 3CL^pro [1]; [4])?
**A.** < 100 nM

**Q.** What about the IC50 (SARS-CoV-2 3CL^pro [2]) of the same compound?
**A.** 100 to 1000 nM

**Q.** What does the source list for `Cn1cc2cc(/N=c3\[nH]c(=O)n(Cc4cn(CCOCCOCC(=O)Nc5cccc6c5C(=O)N(C5CCC(=O)NC5=O)C6=O)nn4)c(=O)n3Cc3cc(F)c(F)cc3F)c(Cl)cc2n1` (stereo not shown) [Compound 17]?
**A.** DC50 (SARS-CoV-2 3CL^pro [1]; [3]): < 100 nM; DC50 (SARS-CoV-2 3CL^pro [1]; [4]): < 100 nM

**Q.** With “(E)-2-(2-(4-((4-((6-chloro-2-methyl-2H-indazol-5-yl)imino)-2,6-dioxy-3-(2,4,5-Trifluorobenzyl)-1,3,5-triazin-1-yl)methyl)-1H-1,2,3-triazol-1-yl)ethoxy yl)-N-(2-(2,6-dioxopiperidin-3-yl)-1,3-dioxoisoindolin-4-yl)acetamide [Compound 16]” as the compound, how does the DC50 (SARS-CoV-2 3CL^pro [1]; [3]) read?
**A.** < 100 nM

**Q.** And the DC50 (SARS-CoV-2 3CL^pro [1]; [4])?
**A.** < 100 nM

**Q.** What about the IC50 (SARS-CoV-2 3CL^pro [2]; [5]) of the same compound?
**A.** 100 to 1000 nM

**Q.** How did the DC50 (SARS-CoV-2 3CL^pro [1]; [3]) turn out when “(E)-4-(4-((4-((6-chloro-2-methyl-2H-indazol-5-yl)imino)-2,6-dioxy-3-(2,4,5-Trifluorobenzyl)-1,3,5-triazin-1-yl)methyl)-1H-1,2,3-triazol-1-yl)-N-(2-Preparation of (2,6-dioxopiperidin-3-yl)-1,3-dioxoisoindolin-4-yl)butanamide [Compound 8]” was run?
**A.** < 100 nM

**Q.** And the DC50 (SARS-CoV-2 3CL^pro [1]; [4])?
**A.** < 100 nM

**Q.** What about the IC50 (SARS-CoV-2 3CL^pro [2]; [5]) of the same compound?
**A.** < 100 nM

**Q.** And the IC50 (SARS-CoV-2 3CL^pro [2]; FRET, read-out: IC50 values)?
**A.** < 100 nM

**Q.** With “(E)-5-(4-((4-((6-chloro-2-methyl-2H-indazol-5-yl)imino)-2,6-dioxy-3-(2,4,5-Trifluorobenzyl)-1,3,5-triazin-1-yl)methyl)-1H-1,2,3-triazol-1-yl)-N-(2-Preparation of (2,6-dioxopiperidin-3-yl)-1,3-dioxoisoindolin-4-yl)pentanamide [Compound 9]” as the compound, how does the DC50 (SARS-CoV-2 3CL^pro [1]; [3]) read?
**A.** < 100 nM

**Q.** What about the DC50 (SARS-CoV-2 3CL^pro [1]; [4]) of the same compound?
**A.** < 100 nM

**Q.** What about the IC50 (SARS-CoV-2 3CL^pro [2]; [5]) of the same compound?
**A.** < 100 nM

**Q.** What about the IC50 (SARS-CoV-2 3CL^pro [2]; FRET, read-out: IC50 values) of the same compound?
**A.** < 100 nM

**Q.** Which DC50 (SARS-CoV-2 3CL^pro [1]; [3]) does the source give for “(E)-6-(4-((4-((6-chloro-2-methyl-2H-indazol-5-yl)imino)-2,6-dioxy-3-(2,4,5-Trifluorobenzyl)-1,3,5-triazin-1-yl)methyl)-1H-1,2,3-triazol-1-yl)-N-(2-Preparation of (2,6-dioxopiperidin-3-yl)-1,3-dioxoisoindolin-4-yl)hexanamide [Compound 10]” here?
**A.** < 100 nM

**Q.** And the DC50 (SARS-CoV-2 3CL^pro [1]; [4])?
**A.** < 100 nM

**Q.** What about the IC50 (SARS-CoV-2 3CL^pro [2]; [5]) of the same compound?
**A.** < 100 nM

**Q.** What about the IC50 (SARS-CoV-2 3CL^pro [2]; FRET, read-out: IC50 values) of the same compound?
**A.** < 100 nM

**Q.** Which DC50 (SARS-CoV-2 3CL^pro [1]; [3]) does the source give for “(E)-7-(4-((4-((6-chloro-2-methyl-2H-indazol-5-yl)imino)-2,6-dioxy-3-(2,4,5-Trifluorobenzyl)-1,3,5-triazin-1-yl)methyl)-1H-1,2,3-triazol-1-yl)-N-(2-Preparation of (2,6-Dioxypiperidin-3-yl)-1-oxoisoquinolin-4-yl)heptamide [Compound 5]” here?
**A.** < 100 nM

**Q.** What about the DC50 (SARS-CoV-2 3CL^pro [1]; [4]) of the same compound?
**A.** < 100 nM

**Q.** What about the IC50 (SARS-CoV-2 3CL^pro [2]; [5]) of the same compound?
**A.** 100 to 1000 nM

**Q.** Which DC50 (SARS-CoV-2 3CL^pro [1]; [3]) does the source give for “(E)-7-(4-((4-((6-chloro-2-methyl-2H-indazol-5-yl)imino)-2,6-dioxy-3-(2,4,5-Trifluorobenzyl)-1,3,5-triazin-1-yl)methyl)-1H-1,2,3-triazol-1-yl)-N-(2-Preparation of (2,6-dioxopiperidin-3-yl)-1,3-dioxoisoindolin-4-yl)heptamide [Compound 11]” here?
**A.** 100 to 1000 nM

**Q.** And the IC50 (SARS-CoV-2 3CL^pro [2]; [5])?
**A.** 100 to 1000 nM

**Q.** With “(E)-8-(4-((4-((6-Chloro-2-methyl-2H-indazol-5-yl)imino)-2,6-dioxy-3-(2,4,5-Trifluorobenzyl)-1,3,5-triazin-1-yl)methyl)-1H-1,2,3-triazol-1-yl)-N-(2-Preparation of (2,6-dioxopiperidin-3-yl)-1,3-dioxoisoindolin-4-yl)octamide [Compound 12]” as the compound, how does the DC50 (SARS-CoV-2 3CL^pro [1]; [3]) read?
**A.** 100 to 1000 nM

**Q.** What about the IC50 (SARS-CoV-2 3CL^pro [2]; [5]) of the same compound?
**A.** 100 to 1000 nM

— patent publication US11530195B1, “Protacs targeting coronavirus 3CL protease and preparation method and application thereof” (SHAANXI PANLONG PHARMACEUTICAL CO., LTD., priority 2022, dated 2022)
